Data reported in patent publication US20200253877A1, “GEMCABENE, PHARMACEUTICALLY ACCEPTABLE SALTS THEREOF, COMPOSITIONS THEREOF AND METHODS OF USE THEREFOR” (NEUROBO PHARMACEUTICALS, INC., priority 2018, published 2020).

Legend:
[1] = test system: hepatic mRNA expression in STAM™ mice; experiment: Murine STAM model of NASH-HCC: hepatic gene expression by quantitative RT-PCR; format: in vivo, mouse
Experimental: A study was performed to evaluate the efficacy of gemcabene calcium salt hydrate Crystal Form 1 having a PSD90 of 52 μm as measured by laser light diffraction, in treating non-alcoholic steatosis hepatitis (NASH) in the murine STAM™ model of NASH-HCC.
Briefly, two-day old neonatal C57BL/6 male mice were administered low-dose streptozotocin (STZ), and were subsequently fed a HFC diet from 4 weeks of age. In this model, the mice typically develop liver steatosis and diabetes, reaching steatohepatitis within 3 weeks, followed by cirrhosis within 8 weeks, and carcinoma within 16 weeks. In the current study, mice were administered daily oral gemcabene calcium salt hydrate Crystal Form 1 starting at week 6 of age and were sacrificed at week 9. […] These STAM™ groups were orally administered from week 6 one of the following: water-vehicle, gemcabene calcium salt hydrate Crystal Form 1 at 30, 100 and 300 mg/kg daily, or telmisartan ([…]®) 10 mg/kg daily. […] All groups were sacrificed at week 9. Vehicle, gemcabene calcium salt hydrate Crystal Form 1, or telmisartan were administered by oral gavage once daily.
Various gene expression markers of liver metabolism were evaluated by Real-Time PCR (RT-PCR) in all mouse groups. Total RNA was extracted from liver samples using RNAiso (Takara Bio, Japan) according to the manufacturer's instructions. […] of RNA was reverse-transcribed using a reaction mixture containing 4.4 mM MgCl2 (F. Hoffmann-La Roche, Switzerland), 40 U RNase inhibitor (Toyobo, Japan), 0.5 mM dNTP (Promega, USA), 6.28 μM random hexamer (Promega), 5×first strand buffer (Promega), 10 mM dithiothreitol (Invitrogen, USA) and 200 U MMLV-RT (Invitrogen) in a final volume of 20 μL. The reaction was carried out for 1 hour at 37° C., followed by 5 minutes at 99° C. Real-time PCR was performed using real-time PCR DICE and SYBR premix Taq (Takara Bio). To calculate the relative mRNA expression level, the expression of each gene was normalized to that of reference gene 36B4 (gene symbol: RplpO). Information of PCR-primer sets is described in Tables 37A-37C. Statistical analyses were performed using the Bonferroni Multiple Comparison Test on GraphPad Prism 6 (GraphPad Software Inc., USA). P values <0.05 were considered statistically significant. Results are expressed as mean±SD.
In order to calculate the relative mRNA expression level, the expression of each gene was normalized to that of the reference gene 36B4 (gene symbol: RplpO). The gene expression levels were measured by quantitative RT-PCR. Results were normalized with values for the vehicle-treated normal group. […] Gemcabene calcium salt hydrate Crystal Form 1 (PSD90=52 μm) modulated the mRNA expression of many hepatic genes that play a significant role in the liver homeostasis and injury.

[2] = test system: STAM™ mice, a murine model of NASH-HCC; experiment: Murine STAM model of NASH-HCC: whole blood, plasma and liver biochemistry
[3] = 10 mg/kg, n = 7, STAM mice, normalized to non-treated group
[4] = gemcabene Form 1 100 mg/kg, telmisartan 10 mg/kg
[5] = vs Vehicle in NASH group, gemcabene Form 1 100 and 300 mg/kg, telmisartan 10 mg/kg
[6] = 10 mg/kg PO QD, Day 18 after 8 hours of fasting, mean ± SD, n = 8
[7] = 10 mg/kg PO QD, at termination (Day 21), mean ± SD, n = 7

CCCc1nc2c(C)cc(-c3nc4ccccc4n3C)cc2n1Cc1ccc(-c2ccccc2C(=O)O)cc1 [telmisartan, reference compound]
ACC1 gene expression (mean ± SD) [1, 3]: 0.7 ± 0.1 | ACC2 gene expression (mean ± SD) [1, 3]: 0.3 ± 0.1 | ADH-4 gene expression (mean ± SD) [1, 3]: 0.6 ± 0.2 | ANGPTL3 gene expression (mean ± SD) [1, 3]: 0.7 ± 0.2 | ANGPTL4 gene expression (mean ± SD) [1, 3]: 2.1 ± 0.3 | ANGPTL8 gene expression (mean ± SD) [1, 3]: 0.3 ± 0.1 | ApoC-III gene expression (mean ± SD) [1, 3]: 0.8 ± 0.2 | CCR2 gene expression (mean ± SD) [1, 3]: 2.4 ± 0.8 | CCR5 gene expression (mean ± SD) [1, 3]: 1.5 ± 0.3 | CRP gene expression (mean ± SD) [1, 3]: 0.9 ± 0.1 | CXCL1/KC gene expression (mean ± SD) [1, 3]: 0.6 ± 0.3 | Fetuin-A gene expression (mean ± SD) [1, 3]: 1.0 ± 0.1 | IL-1β gene expression (mean ± SD) [1, 3]: 0.7 ± 0.2 | IL-6 gene expression (mean ± SD) [1, 3]: 0.8 ± 0.4 | LDL receptor gene expression (mean ± SD) [1, 3]: 0.7 ± 0.3 | LPL gene expression (mean ± SD) [1, 3]: 2.4 ± 0.5 | MCP-1 gene expression (mean ± SD) [1, 3]: 2.1 ± 1.0 | MIP-1β gene expression (mean ± SD) [1, 3]: 3.9 ± 1.5 | MMP-2 gene expression (mean ± SD) [1, 3]: 1.4 ± 0.7 | NF-κB gene expression (mean ± SD) [1, 3]: 1.1 ± 0.1 | PNPLA3 gene expression (mean ± SD) [1, 3]: 0.1 ± 0.0 | SCD1 gene expression (mean ± SD) [1, 3]: 0.1 ± 0.0 | SREBP-1 gene expression (mean ± SD) [1, 3]: 0.7 ± 0.2 | Sulf-2 gene expression (mean ± SD) [1, 3]: 3.9 ± 0.9 | TIMP-1 gene expression (mean ± SD) [1, 3]: 8.6 ± 5.1 | TNF-α gene expression (mean ± SD) [1, 3]: 3.0 ± 1.2 | α-SMA gene expression (mean ± SD) [1, 3]: 2.3 ± 0.7 | LDL receptor gene expression ([1]; STAM mice): no effect | ACC-1 mRNA expression (relative, mean±SD) [1, 4]: 0.7±0.1 | ADH-4 mRNA expression (relative, mean±SD) [1, 4]: 0.6±0.2 | CCR2 mRNA expression (relative, mean±SD) [1, 4]: 2.4±0.8 | CCR5 mRNA expression (relative, mean±SD) [1, 4]: 1.5±0.3 | CRP mRNA levels (relative, mean±SD) [1, 4]: No significant differences | MCP-1 mRNA expression (relative, mean±SD) [1, 4]: 2.1±1.0 | MIP-1β mRNA levels (relative, mean±SD) [1, 4]: 3.9±1.5 | hepatic LPL mRNA expression levels ([1]; vs Vehicle in NASH group, gemcabene Form 1 30, 100 and 300 mg/kg, telmisartan 10 mg/kg): no significant difference | ANGPTL4 mRNA expression levels [1, 5]: significant down-regulations | IL-6 mRNA expression level [1, 5]: significant down-regulations | Fasting blood glucose [2, 6]: 742 ± 90 mg/dL | Plasma insulin [2, 6]: 0.16 ± 0.04 ng/mL | Liver free fatty acid [2, 7]: 46.8 ± 10.7 pEq/g liver | Liver hydroxyproline [2, 7]: 0.91 ± 0.12 μg/mg total protein | Liver triglyceride [2, 7]: 31.7 ± 6.4 mg/g liver | Non-fasting blood glucose [2, 7]: 856 ± 62 mg/dL | Plasma ApoC-III [2, 7]: 6.2 ± 0.7 gg/mL | Plasma CRP [2, 7]: 3.0 ± 0.4 gg/mL | Plasma adiponectin [2, 7]: 6.8 ± 0.9 gg/mL | Plasma alanine aminotransferase [2, 7]: 39 ± 15 U/L | Plasma alkaline phosphatase [2, 7]: 567 ± 104 U/L | Plasma aspartate aminotransferase [2, 7]: 121 ± 38 U/L | Plasma blood urea nitrogen [2, 7]: 85.0 ± 17.4 mg/dL | Plasma creatinine [2, 7]: 0.1 ± 0.0 mg/dL | Plasma gamma-glutamyl transferase [2, 7]: 1 ± 0 U/L | Plasma ketone body [2, 7]: 8.11 ± 3.27 m M | Plasma leptin [2, 7]: 2.9 ± 1.1 ng/mL | Plasma total bilirubin [2, 7]: 0.3 ± 0.1 mg/dL | Plasma total cholesterol [2, 7]: 208 ± 19 mg/dL | Plasma triglyceride [2, 7]: 569 ± 256 mg/dL | fasting whole blood glucose concentrations ([2]; 3 days prior to termination, 8 h fasting, vs vehicle-treated STAM mice, gemcabene Form 1 30, 100, 300 mg/kg, telmisartan 10 mg/kg, oral daily wk 6-9): significant increase | plasma ALP levels ([2]; at termination, vs vehicle-treated NASH group, gemcabene Form 1 100 and 300 mg/kg, telmisartan 10 mg/kg): significant increases | whole blood glucose levels ([2]; at termination, vs vehicle-treated STAM mice, gemcabene Form 1 30, 100, 300 mg/kg, telmisartan 10 mg/kg): significant increase | plasma BUN levels ([2]; at termination, vs vehicle-treated STAM mice, telmisartan 10 mg/kg): significant increase | plasma triglyceride concentrations ([2]; vs vehicle-treated STAM mice, gemcabene Form 1 30, 100, 300 mg/kg (dose-dependent manner), telmisartan 10 mg/kg): no significant difference | liver triglyceride content ([2]; vs vehicle-treated STAM mice, gemcabene Form 1 30, 100, 300 mg/kg, telmisartan 10 mg/kg): significant decrease | plasma total cholesterol concentrations ([2]; vs vehicle-treated STAM mice, gemcabene Form 1 100 and 300 mg/kg, telmisartan 10 mg/kg): significant increases
